Measurements as given in patent EP0256909B1, “N,N-bis-(4-fluorophenyl) carbamoyl acetohydroxamic acid and pharmaceutical composition containing it” (priority 1986, dated 1988).
Entries after “also recorded” stand apart in the source; their conditions may differ.

Tests used:
homme = assay: Use as stimulant antidepressant in man; type: in vivo; details: 2 to 3 tablets of 150 mg per day, oral route
rat [1] = assay: Interaction with apomorphine, rat; type: in vivo; details: 64 and above all 256 mg/kg i.p., 30 min before s.c. apomorphine 0,5 mg/kg
Experimental: (§1) Le CRL 41131, en suspension dans une solution de gomme arabique à 5%, a été administré par voie intrapéritonéale sous un volume de 20 ml/kg chez la souris (mâle, NMRI, Evic Ceba) et de 5 ml/kg chez le rat (mâle, CD1, Sprague Dawley, Charles River).
Le CRL 41131 est administré à des lots de 6 rats 30 min avant l'injection sous-cutanée de 0,5 mg/kg d'apomorphine.

[2] = Solubility of the powder in solvents; type: physicochemical
rat [3] = assay: Interaction with amphetamine; type: in vivo
souris [4] = details: in vivo, ip
Experimental: as §1
(§2) Le test est pratiqué sur des lots de 10 souris, 30 min après l'administration de CRL 41131.

souris [5] = assay: Intergroup aggressiveness; type: in vivo
Experimental: Après avoir séjourné pendant 3 semaines dans chacune des moitiés d'une cage séparées par une cloison opaque, des groupes de 3 souris reçoivent le CRL 41131. Trente minutes plus tard, les deux groupes d'une même cage sont réunis par retrait de la cloison et on note le nombre de combats qui surviennent en 10 min.

souris [6] = assay: Interaction with barbital; type: in vivo; details: 128 et 512 mg/kg, barbital 220 mg/kg i.p.
Experimental: Trente minutes après l'administration de CRL 41131, des lots de 10 souris reçoivent une injection intrapéritonéale de barbital (220 mg/kg).

souris [7] = assay: Spontaneous motility (actimeter); type: in vivo
Experimental: Après avoir reçu le CRL 41131, les souris (6 par dose, 12 témoins) sont placées en actimètre où leur motilité est enregistrée pendant 30 min.

souris [8] = assay: Motility reduced by hypoxic aggression; type: in vivo; details: 8, 32, above all 128 et 512 mg/kg i.p., after acute hypobaric anoxia
Experimental: Trente minutes après avoir reçu le CRL 41131, les souris (10 par dose, 20 témoins) sont soumises à une anoxie hypobare aiguë (dépression de 600 mmHg en 90 s, détente de 45 s), puis elles sont placées en actimètre où leur motilité est enregistrée pendant 10 min.

souris [9] = assay: Four plates test; type: in vivo; details: mouse, 30 min after i.p. administration
Experimental: as §1, §2

souris [10] = assay: Global behaviour and reactivities, mouse; type: in vivo
Experimental: (§3) Des lots de 3 animaux sont observés avant, puis 15 min, 30 min, 1 h, 2 h, 3 h et 24 h après l'administration de CRL 41131.

rat [11] = assay: Global behaviour and reactivities, rat; type: in vivo
Experimental: as §3

souris [12] = assay: Asphyxic anoxia (gallamine triethiodide); type: in vivo; details: i.p. 30 min before gallamine triethiodide 32 mg/kg i.p.
Experimental: Des lots de 10 souris reçoivent le CRL 41131 30 min avant l'administration intrapéritonéale de 32 mg/kg de triiodoéthylate de gallamine.

souris [13] = assay: Motility reduced by habituation to the enclosure; type: in vivo; details: 32, 128 et 512 mg/kg i.p.
Experimental: Après 18 h de séjour dans les actimètres, les souris (6 par dose, 12 témoins) reçoivent le CRL 41131. Elles sont aussitôt replacées dans leurs enceintes respectives et, 30 min plus tard, on enregistre leur motilité pendant 30 min.

souris [14] = assay: Behavioural despair (forced immersion); type: in vivo; details: 32, 128, 512 mg/kg i.p., 2nd to 6th minute
Text: Trente min après avoir reçu le CRL 41131, des lots de 6 souris (mâles, CD1, Charles River) sont placés dans un bécher rempli d'eau sur une hauteur de 6 cm. On note la durée totale d'immobilité entre la deuxième et la sixième minute suivant l'immersion.

souris [15] = assay: Interaction with apomorphine, mouse; type: in vivo; details: compound i.p. 30 min before s.c. apomorphine 1 or 16 mg/kg
Experimental: as §1
Des lots de 6 souris reçoivent le CRL 41 131 30 min avant l'injection sous-cutanée d'apomorphine, à la dose de 1 ou 16 mg/kg. • a) Apomorphine 1 mg/kg • b) Apomorphine 16 ma/ka

souris [16] = assay: Interaction with oxotremorine; type: in vivo; details: mouse, oxotremorine 0,5 mg/kg i.p.
Experimental: Le CRL 41131 est administré à des lots de 6 souris 30 min avant l'injection intrapéritonéale de 0,5 mg/kg d'oxotrémorine.

souris [17] = assay: Electroshock test; type: in vivo
souris [18] = assay: Interaction with reserpine; type: in vivo; details: 128 et 512 mg/kg i.p., mouse, 4 h after reserpine 2,5 mg/kg i.p.
Experimental: Quatre heures après l'injection intrapéritonéale de 2,5 mg/kg de réserpine, des lots de 6 souris reçoivent le CRL 41131.

[19] = comparison section, no dose given

With `O=C(CC(=O)N(c1ccc(F)cc1)c1ccc(F)cc1)NO` [CRL 41131, acide N,N-bis-(4-fluorophényl) carbamoylacétohydroxamique] the “résultats comme antidépresseur stimulant chez l'homme” value (homme) was “bons résultats comme antidépresseur stimulant”, the “stéréotypies induites par l'apomorphine” value (rat [1]) was “potentialisation” and the “solubilité dans les alcools, l'acétone, l'acétate d'éthyle” value ([2]; alcohols, acetone, ethyl acetate) was “soluble”. For the same compound, the “solubilité dans l'éther” value ([2]; ether) was “peu soluble”, the “solubilité dans l'éther isopropylique” value ([2]; isopropyl ether) was “insoluble” and the “solubilité dans l'eau” value ([2]; water) was “insoluble”. The “stéréotypies amphétaminiques” value (rat [3]; 64 and above all 256 mg/kg i.p., rat, 30 min before amphetamine 2 mg/kg i.p.) was “potentialisation importante”, the “test à l'amphétamine: stéréotypies du rat” value (rat [3]; [19]) was “potentialise ces stéréotypies” and the incapacité motrice (souris [4]) was “ne provoque pas l'incapacité motrice majeure”. The nombre de combats (souris [5]; 512 mg/kg i.p. (highest dose used), 30 min before, fights in 10 min) was “diminue nettement le nombre de combats”, the “agressivité intergroupe des souris” value (souris [5]; 128 et 512 mg/kg, comparison section) was “diminution” and the “durée du sommeil barbiturique” value (souris [6]) was “diminue encore le sommeil; also recorded: diminue la durée du sommeil barbiturique”. For the same compound, the “durée de l'effet” value (souris [7]; 32 mg/kg i.p.) was 4 h, the “durée de l'effet” value (souris [7]; 128 mg/kg i.p.) was 4 à 24 h and the “durée de l'effet” value (souris [7]; 512 mg/kg i.p.) was over 24 h. For the same compound, the hypermotilité (souris [7]; 512 mg/kg i.p. (highest dose), given 30 min before actimeter) was “l'hypermotilité est moins importante qu'à 128 mg/kg”, the “activité motrice spontanée” value (souris [7]; 8, 32, 128 et 512 mg/kg i.p., given 30 min before actimeter) was “augmente modérément l'activité motrice spontanée” and the “activité motrice spontanée” value (souris [7]; 128 et 512 mg/kg i.p., given 2 h before actimeter) was “cette augmentation est plus nette”. The “motilité spontanée” value (souris [7]; 128 et 512 mg/kg i.p., given 4 h before actimeter) was “augmente la motilité spontanée”, the “activité motrice spontanée” value (souris [7]; from 8 mg/kg i.p., given 2 h before actimeter) was “augmente l'activité motrice spontanée” and the minimal effective dose (souris [7]; ip, mouse, i.p., overall conclusion, read-out: doses qui augmentent l'activité motrice spontanée) was at least 32 mg/kg. The “motilité spontanée” value (souris [7]; only 512 mg/kg i.p., given 24 h before actimeter) was “augmente modérément la motilité spontanée”, the récupération motrice (souris [8]) was “amélioration de la récupération motrice” and the “nombre de passages punis” value (souris [9]) was “n'entraîne pas d'augmentation nette du nombre de passages punis”. The “Comportement global: excitation” value (souris [10]; 128 mg/kg i.p.) was “excitation (1/3) pendant 1 h”, the “Comportement global: excitation” value (souris [10]; 512 mg/kg i.p.) was “excitation (1/3 pendant 1 h, 2/3 entre 2 et 3 h, et 3/3 à 24 h)” and the “Comportement global et réactivités à 24 h” value (souris [10]; 512 mg/kg i.p., 24 h) was “mouvements d'apparence stéréotypée, augmentation de la réaction de peur et de la réactivité au toucher à 24 h”. For the same compound, the “Comportement, réactivités, variations du diamètre pupillaire et de la température” value (souris [10]; 8 et 32 mg/kg i.p.) was “comparables à ceux du lot témoin”, the “comportement: excitation, réaction de peur” value (rat [11]; 256 mg/kg i.p.) was “excitation et augmentation de la réaction de peur (entre 2 h et 24 h)” and the “stéréotypies, réactivité au toucher” value (rat [11]; 256 mg/kg i.p., 24 h) was “stéréotypies, augmentation de la réactivité au toucher en 24 h”. For the same compound, the “comportement et réactivités” value (rat [11]; 4, 16 et 64 mg/kg i.p.) was “pas de modification nette du comportement et des réactivités”, the “délai d'apparition des convulsions consécutives à une anoxie asphyxique” value (souris [12]) was “ne modifie pratiquement pas” and the “activité motrice chez la souris habituée à son enceinte” value (souris [13]) was “reprise nette de l'activité motrice”. For the same compound, the “durée de l'immobilité” value (souris [14]) was “diminue la durée de l'immobilité”, the “action hypothermisante induite par l'apomorphine” value (souris [15]) was “ne s'oppose pas” and the “comportements de verticalisation et de stéréotypies” value (souris [15]) was “ne sont pas modifiés”. For the same compound, the “action hypothermisante de l'oxotrémorine (température)” value (souris [16]) was “n'a pas d'effet; also recorded: ne modifie pas”, the “intensité des tremblements provoqués par l'oxotrémorine” value (souris [16]) was “n'a pas d'effet; also recorded: ne modifie pas” and the “signes de stimulation cholinergique périphérique dus à l'oxotrémorine” value (souris [16]) was “ne modifie pas”. For the same compound, the “effets létaux de l'électrochoc” value (souris [17]; 32, 128 et 512 mg/kg i.p., mouse, 30 min after administration) was “aggrave modérément les effets létaux de l'électrochoc”, the “test à l'électrochoc” value (souris [17]; [19]) was “aggrave les effets létaux de l'électrochoc” and the “hypothermie réserpinique” value (souris [18]) was “s'oppose tardivement (24 h)”. For the same compound, the “ptôsis réserpinique” value (souris [18]) was “s'oppose tardivement (24 h)”.
